In general, IC50 refers to the midpoint of a concentration-inhibition curve. A word on the half-life: it is the time needed for the level to fall by half in the phase considered. What is called EC50 is the concentration needed to bring the measured effect to its halfway point.

This note sets out measurements from patent US20210238173A1, “MITOGEN-ACTIVATED PROTEIN KINASE KINASE 7 INHIBITORS” (Yeda Research and Development Co. Ltd., priority 2018, published 2021).

Structures are written as SMILES.

The target in series [1] is T1, MKK4 (Homo sapiens, UniProt P45985).
T1 construct: purchased Nanosyn (contract assay)
T1 sequence (P45985 1-399): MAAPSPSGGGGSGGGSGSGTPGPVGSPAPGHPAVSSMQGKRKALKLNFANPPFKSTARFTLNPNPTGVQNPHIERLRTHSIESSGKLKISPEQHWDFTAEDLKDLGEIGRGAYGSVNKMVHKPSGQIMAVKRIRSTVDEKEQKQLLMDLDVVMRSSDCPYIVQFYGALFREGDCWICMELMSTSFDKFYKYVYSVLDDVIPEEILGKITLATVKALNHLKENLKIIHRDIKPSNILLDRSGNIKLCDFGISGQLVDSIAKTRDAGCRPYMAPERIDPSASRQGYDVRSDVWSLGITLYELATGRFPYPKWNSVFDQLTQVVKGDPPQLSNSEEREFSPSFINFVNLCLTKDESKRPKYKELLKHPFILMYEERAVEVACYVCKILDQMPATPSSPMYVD
Briefly: In vitro activity assay for MKK4 (Nanosyn). The format is biochemical. As for the experimental part:
(§1) In Vitro Activity Assays for MKK7 or MKK4 (Carried by Nanosyn):
(§2) Exemplary test compounds, according to some embodiments of the present invention, were diluted in DMSO to a final concentration that ranged from 10 μM to 0.0565 nM, while final concentration of DMSO in all assays was kept at 1%. Reference compound, Staurosporine, was tested in a similar manner. […] After incubation, activity of now activated JNK1 was tested in the presence of 30 μM ATP ATP for 17 h (MKK7) or 4 h (MKK4).

Series [2] in a line: Metabolic stability in monkey liver microsomes. The format is in vitro ADME. From the text: (§3) A reference compound, REF1250, was used in this study: […]
For orientation: Liver microsomes are a subcellular fraction often used to study metabolism.

Series [3] can be described thus: Metabolic stability in mouse liver microsomes. The format is in vitro ADME. The following applies: for half-life: mouse, liver microsomes.
Text: as §3

Series [4] in a line: Metabolic stability in dog liver microsomes. The format is in vitro ADME. The following applies: for half-life: dog, liver microsomes.
Text: as §3

Series [5] is described as follows: Metabolic stability in human liver microsomes. The format is in vitro ADME. The following applies: for half-life: human, liver microsomes.
Text: as §3

The nature of series [6]: Metabolic stability in rat liver microsomes. The format is in vitro ADME. The following applies: for half-life: rat, liver microsomes.
Text: as §3

For series [7], the target named is T2, MKK7 (Homo sapiens, UniProt O14733).
T2 construct: purchased Nanosyn (contract assay)
T2 sequence (O14733 1-419): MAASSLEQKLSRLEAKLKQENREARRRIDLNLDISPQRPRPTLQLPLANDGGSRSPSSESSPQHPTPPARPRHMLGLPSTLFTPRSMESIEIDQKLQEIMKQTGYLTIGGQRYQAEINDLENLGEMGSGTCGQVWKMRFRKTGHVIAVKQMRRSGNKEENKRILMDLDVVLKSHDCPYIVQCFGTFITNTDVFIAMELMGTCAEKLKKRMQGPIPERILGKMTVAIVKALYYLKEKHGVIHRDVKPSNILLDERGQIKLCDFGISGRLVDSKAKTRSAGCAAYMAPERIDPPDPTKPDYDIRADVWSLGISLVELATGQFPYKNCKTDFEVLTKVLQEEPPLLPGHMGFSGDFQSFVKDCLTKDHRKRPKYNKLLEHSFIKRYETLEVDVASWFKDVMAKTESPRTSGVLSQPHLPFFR
Briefly: In vitro kinase activity assay for MKK7 (Nanosyn). The format is biochemical. The following applies: read-out: MKK7 IC50 in vitro. As for the experimental part:
Based on visual inspection of the top 500 predictions, 10 compounds were selected for synthesis and testing (see, Table 1). The “Docking rank” is given in its respective run, whereas four virtual libraries of acrylamides were docked separately, based on the amine precursor for the acrylamide (primary or secondary aliphatic amines, primary or secondary aromatic amines). In vitro kinase activity assay was carried out by Nanosyn, as described below.
as §1, §2

For series [8], the system named is pJNK in HEK293 cells. The series is described as follows: In-cell western (ICW) pJNK inhibition in HEK293. The format is cell-based. The following applies: 2 h pre-incubation, sorbitol stimulation. On the procedure: (§4) HEK293, Beas2B and 3T3 cells were plated 24 hours before procedure on 384 well clear bottom black flat plates (Corning) pre-coated with Fibronectin (Sigma) diluted in PBS to a concentration of 5 μg/ml 45 minutes prior to cells introduction. Cells were plated using Multidrop™ Combi reagent dispenser (Thermo Fisher Scientific). Compound, reagents and antibody dispensing as well as washes were performed with a CyBio liquid handler (Analytik). Cells were pre-incubated with a small molecule or up to 1% DMSO for 2 h before fixation. HEK293, 3T3 or Beas2B cells were treated with 0.6M/0.2M/0.2M D-Sorbitol/PBS (Sigma) for 20/40/40 min. respectively, before fixation. Media was removed and wells were immediately fixed with 150 μl per well of 3.7% formaldehyde/PBS fixing solution for 20 min. Formaldehyde was then aspired and cells were permeabilized with 150 μl of 0.5% Triton x-100/PBS solution for 10 min. After aspiration cells were washed with ice-cold methanol and stored at −20° C., for 10 min. Methanol was aspired and cells were blocked with 150 μl blocking buffer (LICOR) for 90 min. Primary antibody Phospho-SAPK/JNK T183/Y185 (CST; 9251S) was diluted 1:1000 in blocking buffer and was applied 50 μl per well, except control wells to which only blocking buffer was applied, O.N. (16 h) at 4° C. with mild shaking. Primary antibody was aspired, wells were washed with 150 μl 0.1% Tween20/PBS (Sigma) washing solution three times for 7 min. IRDye® 800CW Goat anti-Rabbit IgG Secondary antibody (LICOR) was then diluted 1:1200 in blocking buffer with 50 μl applied per well on control wells only (no CellTag control), then CellTag700 (1:2000) was added to the solution and 50 μl were added to all experiment wells, for 1 h at room temperature. Wells were aspired and washed again with 150 μl 0.1% Tween20/PBS (Sigma) washing solution three times for 7 min. plate was dried and scanned with Odyssey CLx imaging system at 700 nm and 800 nm (Licor). Wells signals were analyzed with Odyssey software. The signal was normalized by the CellTag700 signal.
(§5) To rapidly assess the cellular activity (EC50) with full dose response curves of the MKK7 covalent inhibitors, according to some embodiments of the present invention, an in-cell western assay was adapted to a 384 well plate format over traditional western blot, and monitored phospho-JNK (pJNK) levels in response to osmotic shock. We first characterized the dynamics of pJNK in response to sorbitol. Sufficient dynamic range for pJNK is achieved at 20 minutes in HEK293 cells and at 40 minutes in 3T3 and Beas2B cells. The compound's activity was assessed by pre-treating cells with either compound or DMSO for 2 hours, followed by Sorbitol stimulation. The response of pJNK, and its substrates, pc-Jun and pATF2, was measured, as well as pP38, which is a substrate of MKK4 but not MKK7, and pERK in HEK293 cells, and the results are presented in Table 5 below.

Series [9] concerns primary mouse B-cells. Briefly: Primary B-cell activation (CD86+ FACS) in response to LPS. Type of series: cell-based. The following applies: for inhibition of the CD86+ response: 10 μM, 2 hours pre-incubation. From the text:
Compounds Block Activation of Primary Mouse B-Cells:
JNK is known to mediate activation of B-cells in response to lypopolysacharide (LPS) through the TLR4 signaling pathway as well as in response to B-cell receptor activation (stimulated e.g. with an anti-IgM antibody). Primary B-cells were isolated from the spleen of mice and assessed for their B-cell activation, via FACS analysis of CD86+ expression, in response to LPS in the presence or absence of the covalent MKK7 enzyme inhibitors presented herein, as well as a positive control JNK inhibitor, JNK-IN-8.
At 10 μM and 2 hours pre-incubation before stimulation, GO80 was able to inhibit 60% of the CD86+ response.

Series [10] deals with pJNK in 3T3 WT cells. Briefly: In-cell western (ICW) pJNK inhibition in 3T3 WT. Type of series: cell-based. The following applies: for EC50: 3T3 WT, ICW, 2 h pre-incubation, sorbitol stimulation. As for the experimental part: as §4, §5
Wildtype 3T3 cells, 3T3 MKK7 double knock-out (MKK7^−/−) cells and MKK4/7 double knockouts (MKK4/7^−/−) were used to validate on target activity of the MKK7 covalent inhibitors presented herein.

Setting [11] is: Homo sapiens, HEK293, HEK293, ICW.

Consider `C=CC(=O)Nc1cccc(-c2n[nH]c3cc(Br)ccc23)c1` [GO98], for which the concentration for half-maximal inhibition (IC50) in series [1] is above 10 µM; in series [7], 0.01 µM. The “% remaining @ 40 min” value in series [2] is 0%; in [3], 0%; in series [4] it was 0%; in [5], 0%; in series [6] it was 2%. The half-life is below 5 min in [2]; below 5 min in series [3]; below 5 min in [4]; below 5 min in [5]; 6 min in [6].
Turning to `C=CC(=O)Nc1cccc(-c2n[nH]c3cc(Cl)ccc23)c1` [GO106], the “% remaining @ 40 min” value in [2] came to 0%; in series [3], 0%; in [4], 0%; in series [5], 0%; in series [6] it was 17%. Also, the half-life in series [2] was below 5 min; in [3], below 5 min; in series [4], below 5 min; in [5], below 5 min; in series [6] it was 16 min. The compound also had a concentration for a half-maximal effect (EC50) in series [8] (setting [11]) of 3 µM. Also, the IC50 in [7] came to 0.005 µM.
As to `C=CC(=O)Nc1cc(C#N)cc(-c2n[nH]c3cc(C)ccc23)c1` [GO108], the concentration for half-maximal inhibition (IC50) was above 10 µM in series [1] and 0.002 µM in series [7]. Besides, the “% remaining @ 40 min” value came out at 0% in [2]; 0% in [3]; 0% in series [4]; 0% in series [5]; 6% in [6]. The half-life is below 5 min in [2]; below 5 min in series [3]; below 5 min in series [4]; below 5 min in series [5]; 10 min in series [6]. The EC50 amounted to 2.3 µM in series [8] (HEK293, ICW) and 3.7 µM in series [8] (setting [11]).
With `Cc1cc(NC(=O)c2cccc(NC(=O)/C=C/CN(C)C)c2)ccc1Nc1nccc(-c2cccnc2)n1` [JNK-IN-8, reference compound], in series [9], the “inhibition of the CD86+ response” value is listed as around 90%.
With `C=CC(=O)Nc1cc(-c2n[nH]c3ccccc23)ccn1` [PCM475], the “% remaining @ 40 min” value in [2] is given as 18%; in series [3], 0%; in series [4], 5%; in series [5] it was 0%; in series [6], 22%. For the same compound, the Halflife is on record as 16 min in [2]; below 5 min in [3]; 9 min in series [4]; below 5 min in series [5]; 18 min in series [6]. The 50% effective concentration (EC50) is 0.9 µM in series [8] (HEK293, ICW) and 0.3 µM in series [10]. For the same compound, the “inhibition of the CD86+ response” value in series [9] is around 90%.
Take `C=CC(=O)Nc1cc(C(=O)O)cc(-c2n[nH]c3ccccc23)c1` [PCM476]: the “% remaining @ 40 min” value in series [2] stood at 100%; in [3] it was 100%; in series [4], 100%; in series [5], 100%; in [6], 61%. For the same compound, the Halflife was above 40 min in series [2]; above 40 min in series [3]; above 40 min in series [4]; above 40 min in series [5]; “more than 40 min” in series [5] (listed as PCM76); above 40 min in [6]. The same compound had a concentration giving a half-maximal response (EC50) in series [10] above 10 µM. For the same compound, the “activity in ICW in 3T3 cells” value in series [10] is “inactive”.
With `C=CC(=O)Nc1cc(C(=O)NC)cc(-c2n[nH]c3ccccc23)c1` [PCM487], the “% remaining @ 40 min” value in series [2] turned out to be 41%; in series [3], 3%; in series [4] it was 71%; in series [5] it was 38%; in series [6] it was 72%. Besides, the Halflife in [2] was 33 min; in series [3], 8 min; in [4], above 40 min; in series [5], 27 min; in [6], above 40 min. For the same compound, in series [9], the “inhibition of the CD86+ response” value is on record as around 90%. In [9] (full dose response), it took 4.9 µM to reach half-maximal inhibition (IC50). The compound also showed a concentration giving a half-maximal response (EC50) in [10] (listed as PCM87) of 4.06 µM.
As to `C=CC(=O)N[C@H]1CCCN(c2[nH]nc3ccccc23)C1` [PCM531], in series [8] (setting [11]), the EC50 is above 10 µM. The “activity in ICW in 3T3 cells” value in [10] was “inactive”.
For `C=CC(=O)N[C@@H]1CCCN(c2[nH]nc3ccccc23)C1` [PCM532], in that order: above 10 µM and “inactive”.
The compound `C=CC(=O)Nc1cc(C(=O)N(C)C)cc(-c2n[nH]c3ccccc23)c1` [PCM549] displayed a 50% effective concentration (EC50) in series [10] above 10 µM.
